Data reported in ChEMBL document CHEMBL5360526, “Discovery of BET specific bromodomain inhibitors with a novel scaffold” (Bioorg Med Chem, 2022).
One block for each compound: values may come before it.

Tests used:
[1] = biological target: T1, Bromodomain-containing protein 4 (Homo sapiens, UniProt O60885); test: Inhibition of N-terminal GST-tagged/C-terminal 6His-tagged BRD4 BD1 (47 to 170 residues) (unknown origin) expressed in Escherichia coli BL21 (DE3) using SGRGK(Ac)GGK(Ac)GLGK(Ac) GGAK(Ac)RHRK-biotinylated peptide as substrate incubated for 60 mins by alpha screen assay
[2] = biological target: T1, Bromodomain-containing protein 4; test: Inhibition of BRD4 BD2 (unknown origin) using SGRGK(Ac)GGK(Ac)GLGK(Ac) GGAK(Ac)RHRK-biotinylated peptide as substrate incubated for 60 mins by alpha screen assay
[3] = biological target: Bromodomain-containing protein 9 (Homo sapiens) (UniProt Q9H8M2); test: Inhibition of BRD9 (unknown origin) assessed as remaining activity
[4] = biological target: ATPase family AAA domain-containing protein 2B (Homo sapiens) (UniProt Q9ULI0); test: Inhibition of ATAD2B (unknown origin) assessed as remaining activity
[5] = biological target: Histone acetyltransferase KAT2A (Homo sapiens) (UniProt Q92830); test: Inhibition of GCN5L2 (unknown origin) assessed as remaining activity
[6] = biological target: Bromodomain and PHD finger-containing protein 3 (Homo sapiens) (UniProt Q9ULD4); test: Inhibition of BRPF3 (unknown origin) assessed as remaining activity
[7] = biological target: Protein polybromo-1 (Homo sapiens) (UniProt Q86U86); test: Inhibition of PBRM1 BD5 (unknown origin) assessed as remaining activity
[8] = biological target: Bromodomain-containing protein 3 (Homo sapiens) (UniProt Q15059); test: Inhibition of BRD3 BD1 (unknown origin) assessed as remaining activity
[9] = biological target: Bromodomain adjacent to zinc finger domain protein 2B (Homo sapiens) (UniProt Q9UIF8); test: Inhibition of BAZ2B (unknown origin) assessed as remaining activity
[10] = Microsomal stability in mouse liver microsomes assessed as parent compound remaining measured after 30 mins; type: ADME, Microsome; conditions: read-out: Stability
[11] = biological target: Bromodomain adjacent to zinc finger domain protein 2A (Homo sapiens) (UniProt Q9UIF9); test: Inhibition of BAZ2A (unknown origin) assessed as remaining activity
[12] = biological target: Bromodomain testis-specific protein (Homo sapiens) (UniProt Q58F21); test: Inhibition of BRDT BD2 (unknown origin) assessed as remaining activity
[13] = biological target: CREB-binding protein (Homo sapiens) (UniProt Q92793); test: Inhibition of CREBBP (unknown origin) assessed as remaining activity
[14] = biological target: Transcription initiation factor TFIID subunit 1 (Homo sapiens) (UniProt P21675); test: Inhibition of TAF1 BD2 (unknown origin) assessed as remaining activity
[15] = biological target: Histone acetyltransferase p300 (Homo sapiens) (UniProt Q09472); test: Inhibition of EP300 (unknown origin) assessed as remaining activity
[16] = biological target: Bromodomain and WD repeat-containing protein 1 (Homo sapiens) (UniProt Q9NSI6); test: Inhibition of WDR9 BD2 (unknown origin) assessed as remaining activity
[17] = biological target: E3 ubiquitin-protein ligase TRIM33 (Homo sapiens) (UniProt Q9UPN9); test: Inhibition of TRIM33 (unknown origin) assessed as remaining activity
[18] = biological target: SWI/SNF-related matrix-associated actin-dependent regulator of chromatin subfamily A member 4 (Homo sapiens) (UniProt P51532); test: Inhibition of SMARCA4 (unknown origin) assessed as remaining activity
[19] = biological target: Bromodomain-containing protein 1 (Homo sapiens) (UniProt O95696); test: Inhibition of BRD1 (unknown origin) assessed as remaining activity
[20] = biological target: Bromodomain testis-specific protein (Homo sapiens) (UniProt Q58F21); test: Inhibition of BRDT BD1 (unknown origin) assessed as remaining activity
[21] = biological target: Bromodomain-containing protein 3 (Homo sapiens) (UniProt Q15059); test: Inhibition of BRD3 BD2 (unknown origin) assessed as remaining activity
[22] = biological target: Bromodomain-containing protein 2 (Homo sapiens) (UniProt P25440); test: Inhibition of BRD2 BD1 (unknown origin) assessed as remaining activity
[23] = biological target: Peregrin (Homo sapiens) (UniProt P55201); test: Inhibition of BRPF1 (unknown origin) assessed as remaining activity
[24] = biological target: SWI/SNF-related matrix-associated actin-dependent regulator of chromatin subfamily A member 2 (Homo sapiens) (UniProt P51531); test: Inhibition of SMARCA2 (unknown origin) assessed as remaining activity
[25] = biological target: ATPase family AAA domain-containing protein 2 (Homo sapiens) (UniProt Q6PL18); test: Inhibition of ATAD2A (unknown origin) assessed as remaining activity
[26] = biological target: Transcription initiation factor TFIID subunit 1-like (Homo sapiens) (UniProt Q8IZX4); test: Inhibition of TAF1L BD2 (unknown origin) assessed as remaining activity
[27] = biological target: Bromodomain-containing protein 2 (Homo sapiens) (UniProt P25440); test: Inhibition of BRD2 BD2 (unknown origin) assessed as remaining activity
[28] = biological target: Chromatin remodeling regulator CECR2 (Homo sapiens) (UniProt Q9BXF3); test: Inhibition of CECR2 (unknown origin) assessed as remaining activity
[29] = biological target: Protein polybromo-1 (Homo sapiens) (UniProt Q86U86); test: Inhibition of PBRM1 BD2 (unknown origin) assessed as remaining activity
[30] = biological target: Nucleosome-remodeling factor subunit BPTF (Homo sapiens) (UniProt Q12830); test: Inhibition of FALZ (unknown origin) assessed as remaining activity
[31] = Microsomal stability in human liver microsomes assessed as parent compound remaining measured after 30 mins; type: ADME, Microsome; conditions: read-out: Stability
[32] = biological target: Transcription intermediary factor 1-alpha (Homo sapiens) (UniProt O15164); test: Inhibition of TRIM24 (unknown origin) assessed as remaining activity
[33] = biological target: T1, Bromodomain-containing protein 4; test: Inhibition of BRD4 BD1 (unknown origin) assessed as remaining activity
[34] = biological target: T1, Bromodomain-containing protein 4; test: Inhibition of BRD4 BD2 (unknown origin) assessed as remaining activity
[35] = biological target: Histone acetyltransferase KAT2B (Homo sapiens) (UniProt Q92831); test: Inhibition of PCAF (unknown origin) assessed as remaining activity
[36] = biological target: Bromodomain-containing protein 7 (Homo sapiens) (UniProt Q9NPI1); test: Inhibition of BRD7 (unknown origin) assessed as remaining activity

Chain of Protein polybromo-1 (Homo sapiens) (Q86U86 whole entry): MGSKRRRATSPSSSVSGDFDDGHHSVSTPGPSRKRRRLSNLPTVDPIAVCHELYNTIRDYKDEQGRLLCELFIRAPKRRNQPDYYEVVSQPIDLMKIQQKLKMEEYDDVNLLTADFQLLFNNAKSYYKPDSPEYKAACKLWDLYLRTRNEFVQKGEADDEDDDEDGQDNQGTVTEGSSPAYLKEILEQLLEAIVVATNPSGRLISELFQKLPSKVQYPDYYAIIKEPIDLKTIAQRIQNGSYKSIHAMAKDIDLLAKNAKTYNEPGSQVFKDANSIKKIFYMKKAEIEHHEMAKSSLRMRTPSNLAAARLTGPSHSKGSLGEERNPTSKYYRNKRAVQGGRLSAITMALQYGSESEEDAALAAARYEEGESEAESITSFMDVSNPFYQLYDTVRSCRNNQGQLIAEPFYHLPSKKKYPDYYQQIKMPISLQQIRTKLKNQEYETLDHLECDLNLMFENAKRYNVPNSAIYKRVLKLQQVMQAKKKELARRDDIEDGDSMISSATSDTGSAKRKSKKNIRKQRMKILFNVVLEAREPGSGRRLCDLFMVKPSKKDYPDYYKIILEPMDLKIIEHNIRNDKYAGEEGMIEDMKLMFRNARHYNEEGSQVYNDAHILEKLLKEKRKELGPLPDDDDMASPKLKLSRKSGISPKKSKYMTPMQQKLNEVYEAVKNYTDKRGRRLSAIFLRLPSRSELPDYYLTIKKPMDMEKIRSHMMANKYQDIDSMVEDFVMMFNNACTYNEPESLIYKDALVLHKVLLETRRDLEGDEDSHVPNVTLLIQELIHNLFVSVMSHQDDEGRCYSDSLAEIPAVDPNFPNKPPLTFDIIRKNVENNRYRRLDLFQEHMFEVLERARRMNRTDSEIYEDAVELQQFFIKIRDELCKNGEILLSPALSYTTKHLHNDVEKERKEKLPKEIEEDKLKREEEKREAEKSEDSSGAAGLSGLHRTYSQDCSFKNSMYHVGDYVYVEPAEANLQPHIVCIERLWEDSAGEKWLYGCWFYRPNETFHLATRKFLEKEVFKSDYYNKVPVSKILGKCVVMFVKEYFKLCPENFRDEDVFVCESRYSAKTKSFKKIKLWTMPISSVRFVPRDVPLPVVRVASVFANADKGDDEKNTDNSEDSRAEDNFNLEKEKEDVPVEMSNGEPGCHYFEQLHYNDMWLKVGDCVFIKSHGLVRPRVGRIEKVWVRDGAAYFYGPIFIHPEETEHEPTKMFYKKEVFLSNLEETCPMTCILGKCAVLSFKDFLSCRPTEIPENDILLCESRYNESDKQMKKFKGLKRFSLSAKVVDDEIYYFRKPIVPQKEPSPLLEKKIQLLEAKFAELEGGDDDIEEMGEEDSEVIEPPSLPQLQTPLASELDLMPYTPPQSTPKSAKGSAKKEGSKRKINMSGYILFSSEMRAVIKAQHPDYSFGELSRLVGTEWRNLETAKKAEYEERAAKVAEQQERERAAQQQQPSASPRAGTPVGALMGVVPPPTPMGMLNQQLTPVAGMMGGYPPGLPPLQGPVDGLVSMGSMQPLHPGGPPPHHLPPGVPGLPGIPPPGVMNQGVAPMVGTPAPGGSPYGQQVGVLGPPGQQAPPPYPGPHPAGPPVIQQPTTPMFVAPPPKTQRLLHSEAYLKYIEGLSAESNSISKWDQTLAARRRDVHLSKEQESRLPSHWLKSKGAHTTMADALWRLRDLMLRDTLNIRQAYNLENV
Chain of Bromodomain-containing protein 3 (Homo sapiens) (Q15059 2-726 limits assumed): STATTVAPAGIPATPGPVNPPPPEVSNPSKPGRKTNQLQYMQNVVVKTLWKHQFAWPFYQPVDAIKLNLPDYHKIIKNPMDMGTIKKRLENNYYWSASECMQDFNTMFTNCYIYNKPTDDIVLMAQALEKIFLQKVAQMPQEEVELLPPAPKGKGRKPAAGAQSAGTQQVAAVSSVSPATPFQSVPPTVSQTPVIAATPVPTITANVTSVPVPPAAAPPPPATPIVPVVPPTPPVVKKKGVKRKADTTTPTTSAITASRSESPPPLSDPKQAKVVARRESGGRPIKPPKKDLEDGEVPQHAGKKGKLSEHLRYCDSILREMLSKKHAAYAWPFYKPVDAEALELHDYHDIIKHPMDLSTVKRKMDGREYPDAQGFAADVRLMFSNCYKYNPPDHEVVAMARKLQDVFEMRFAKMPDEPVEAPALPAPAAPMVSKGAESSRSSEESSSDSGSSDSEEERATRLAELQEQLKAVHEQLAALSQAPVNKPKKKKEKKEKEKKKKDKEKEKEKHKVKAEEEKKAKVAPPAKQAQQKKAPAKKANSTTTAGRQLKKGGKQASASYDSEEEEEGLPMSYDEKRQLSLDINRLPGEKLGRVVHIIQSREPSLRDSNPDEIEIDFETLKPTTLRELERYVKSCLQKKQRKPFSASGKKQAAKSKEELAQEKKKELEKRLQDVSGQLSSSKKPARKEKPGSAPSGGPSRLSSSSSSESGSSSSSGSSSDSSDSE
Chain of Bromodomain-containing protein 2 (Homo sapiens) (P25440 whole entry, looked up): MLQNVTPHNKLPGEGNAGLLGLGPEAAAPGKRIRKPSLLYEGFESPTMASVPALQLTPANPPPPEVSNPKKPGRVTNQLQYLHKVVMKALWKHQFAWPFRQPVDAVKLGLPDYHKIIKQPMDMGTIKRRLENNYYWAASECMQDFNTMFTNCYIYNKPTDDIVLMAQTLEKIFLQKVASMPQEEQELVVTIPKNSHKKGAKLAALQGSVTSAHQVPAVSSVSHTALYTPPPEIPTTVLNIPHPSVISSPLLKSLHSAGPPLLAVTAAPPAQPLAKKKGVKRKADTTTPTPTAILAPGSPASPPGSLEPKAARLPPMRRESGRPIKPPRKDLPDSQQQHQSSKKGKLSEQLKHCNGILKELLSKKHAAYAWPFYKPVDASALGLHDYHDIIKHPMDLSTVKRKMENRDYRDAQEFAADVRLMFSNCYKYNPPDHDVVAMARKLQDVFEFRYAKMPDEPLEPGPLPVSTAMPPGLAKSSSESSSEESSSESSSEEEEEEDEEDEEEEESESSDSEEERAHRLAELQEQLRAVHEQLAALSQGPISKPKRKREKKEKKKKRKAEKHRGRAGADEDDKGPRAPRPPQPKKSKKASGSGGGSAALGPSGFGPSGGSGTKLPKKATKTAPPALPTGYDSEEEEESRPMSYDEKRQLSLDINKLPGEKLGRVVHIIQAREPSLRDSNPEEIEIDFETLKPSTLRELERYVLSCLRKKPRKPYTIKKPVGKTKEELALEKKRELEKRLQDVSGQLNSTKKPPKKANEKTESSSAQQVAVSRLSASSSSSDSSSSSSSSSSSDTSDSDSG
Chain of Chromatin remodeling regulator CECR2 (Homo sapiens) (Q9BXF3 whole entry, looked up): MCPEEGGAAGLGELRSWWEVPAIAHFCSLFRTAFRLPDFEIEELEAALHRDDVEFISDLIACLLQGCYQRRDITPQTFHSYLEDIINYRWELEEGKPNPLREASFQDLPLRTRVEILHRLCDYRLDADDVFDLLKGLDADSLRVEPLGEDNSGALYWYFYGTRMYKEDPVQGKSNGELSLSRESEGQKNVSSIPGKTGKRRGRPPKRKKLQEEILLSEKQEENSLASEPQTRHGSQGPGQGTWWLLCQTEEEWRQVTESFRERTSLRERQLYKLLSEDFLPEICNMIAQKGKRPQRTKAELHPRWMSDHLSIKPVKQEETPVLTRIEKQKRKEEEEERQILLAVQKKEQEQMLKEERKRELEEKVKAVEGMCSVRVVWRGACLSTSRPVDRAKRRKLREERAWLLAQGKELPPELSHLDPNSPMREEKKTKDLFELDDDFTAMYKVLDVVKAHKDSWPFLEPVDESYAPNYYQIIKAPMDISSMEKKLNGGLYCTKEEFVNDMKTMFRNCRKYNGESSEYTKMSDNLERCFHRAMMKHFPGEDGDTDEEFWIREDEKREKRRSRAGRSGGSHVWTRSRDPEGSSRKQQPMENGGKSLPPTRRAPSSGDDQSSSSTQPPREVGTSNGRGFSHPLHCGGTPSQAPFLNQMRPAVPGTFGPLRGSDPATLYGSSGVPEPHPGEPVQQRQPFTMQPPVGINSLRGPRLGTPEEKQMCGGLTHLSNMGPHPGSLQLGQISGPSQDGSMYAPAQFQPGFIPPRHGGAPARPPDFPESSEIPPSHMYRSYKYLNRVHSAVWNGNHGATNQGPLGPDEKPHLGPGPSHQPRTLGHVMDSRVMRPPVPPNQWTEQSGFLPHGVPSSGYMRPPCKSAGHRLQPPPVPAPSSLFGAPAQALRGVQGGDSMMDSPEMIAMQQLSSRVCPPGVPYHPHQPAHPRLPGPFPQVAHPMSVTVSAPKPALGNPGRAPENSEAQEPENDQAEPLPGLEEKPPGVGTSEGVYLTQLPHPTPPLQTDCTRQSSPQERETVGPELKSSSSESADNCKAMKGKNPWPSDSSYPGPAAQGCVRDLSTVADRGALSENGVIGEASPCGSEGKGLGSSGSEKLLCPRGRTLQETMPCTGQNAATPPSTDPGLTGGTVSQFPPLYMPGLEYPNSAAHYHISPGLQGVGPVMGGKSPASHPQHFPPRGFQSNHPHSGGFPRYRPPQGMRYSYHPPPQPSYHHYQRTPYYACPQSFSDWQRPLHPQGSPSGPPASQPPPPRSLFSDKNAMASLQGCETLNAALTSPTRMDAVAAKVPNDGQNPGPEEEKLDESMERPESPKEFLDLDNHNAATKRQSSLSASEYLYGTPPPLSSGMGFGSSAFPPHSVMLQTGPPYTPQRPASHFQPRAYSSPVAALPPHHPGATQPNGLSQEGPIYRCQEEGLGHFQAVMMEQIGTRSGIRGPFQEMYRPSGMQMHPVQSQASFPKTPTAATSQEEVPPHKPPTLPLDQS

SMILES: CN(C)S(=O)(=O)Nc1ccc(NCC(c2ccccc2)c2ccccc2)nc1Nc1ccc2[nH]nnc2c1
IC50 [1]: 8.83 µM

SMILES: CN(C)S(=O)(=O)Nc1ccc(NCCc2ccccc2)nc1Nc1ccc2[nH]nnc2c1
IC50 [1]: 5.25 µM

SMILES: CC(C)Nc1ccc(NS(C)(=O)=O)c(Nc2ccc3[nH]nnc3c2)n1
IC50 [2]: 2.86 µM
IC50 [1]: 2.47 µM

SMILES: CN(C)S(=O)(=O)Nc1ccc(NCC2CC2)nc1Nc1ccc2[nH]nnc2c1
IC50 [2]: 5.63 µM
IC50 [1]: 4.45 µM

SMILES: COCC(C)Nc1ccc(NS(=O)(=O)N(C)C)c(Nc2ccc3[nH]nnc3c2)n1 (stereo unspecified)
Activity [3]: 64%
Activity [4]: 55%
Activity [5]: 88%
Activity [6]: 71%
Activity [7]: 73%
Activity [8]: 0.95%
IC50 [2]: 8.01 µM
Activity [9]: 84%
remaining at 0.5 h [10]: 28%
Activity [11]: 82%
Activity [12]: 32%
Activity [13]: 88%
Activity [14]: 31%
IC50 [1]: 2.86 µM
Activity [15]: 82%
Activity [16]: 44%
Activity [17]: 92%
Activity [18]: 75%
Activity [19]: 42%
Activity [20]: 2.7%
Activity [21]: 35%
Activity [22]: 0%
Activity [23]: 78%
Activity [24]: 62%
Activity [25]: 66%
Activity [26]: 86%
Activity [27]: 19%
Activity [28]: 73%
Activity [29]: 44%
Activity [30]: 77%
remaining at 0.5 h [31]: 32.9%
Activity [32]: 98%
Activity [33]: 0.45%
Activity [34]: 22%
Activity [35]: 88%
Activity [36]: 67%

SMILES: CN(C)S(=O)(=O)Nc1ccc(NCCO)nc1Nc1ccc2[nH]nnc2c1
IC50 [2]: 8.25 µM
IC50 [1]: 5.7 µM

SMILES: CN(C)S(=O)(=O)Nc1ccc(NCc2ccc3c(c2)OCO3)nc1Nc1ccc2[nH]nnc2c1
IC50 [1]: 7.7 µM

SMILES: CN(C)S(=O)(=O)Nc1ccc(NCc2ccco2)nc1Nc1ccc2[nH]nnc2c1
IC50 [2]: 23 µM
IC50 [1]: 6.22 µM

SMILES: CC(C)Nc1ccc([N+](=O)[O-])c(Nc2ccc3[nH]nnc3c2)n1
IC50 [2]: 10 µM
IC50 [1]: 9.8 µM

SMILES: CN(C)S(=O)(=O)Nc1ccc(NCc2ccc(F)cc2)nc1Nc1ccc2[nH]nnc2c1
IC50 [1]: 5.24 µM

SMILES: CC(C)Nc1ccc([N+](=O)[O-])c(Nc2ccc3c(c2)nnn3S(=O)(=O)c2ccc(F)cc2)n1
IC50 [2]: 6.17 µM
IC50 [1]: 3.87 µM

SMILES: C[C@H](Nc1ccc(NS(=O)(=O)N(C)C)c(Nc2ccc3[nH]nnc3c2)n1)[C@@H](c1ccccc1)N(C)C
IC50 [2]: 6.9 µM
IC50 [1]: 3.22 µM

SMILES: CC(C)Nc1ccc(NC(=O)c2ccccc2)c(Nc2ccc3[nH]nnc3c2)n1
IC50 [2]: 12.3 µM
IC50 [1]: 3.98 µM

SMILES: CC(C)Nc1ccc([N+](=O)[O-])c(Nc2ccc3c(c2)nnn3C(=O)Nc2ccccc2)n1
IC50 [2]: 5.84 µM
IC50 [1]: 5.13 µM

SMILES: CCS(=O)(=O)Nc1ccc(NC(C)C)nc1Nc1ccc2[nH]nnc2c1
IC50 [2]: 4.47 µM
IC50 [1]: 3.86 µM

Stronger by IC50 [1], values ahead:

IC50 [2]: 1.57 µM
IC50 [1]: 1.61 µM
SMILES: CC(C)Nc1ccc(NS(=O)(=O)c2ccccc2C(F)(F)F)c(Nc2ccc3[nH]nnc3c2)n1

IC50 [2]: 0.3 µM
IC50 [1]: 0.24 µM
SMILES: CC(C)Nc1ccc(NS(=O)(=O)c2ccc(F)cc2)c(Nc2ccc3[nH]nnc3c2)n1

IC50 [2]: 0.64 µM
IC50 [1]: 0.51 µM
SMILES: CC(C)Nc1ccc(NS(=O)(=O)c2ccccc2)c(Nc2ccc3[nH]nnc3c2)n1

IC50 [2]: 1.24 µM
IC50 [1]: 1.12 µM
SMILES: CC(C)Nc1ccc(NS(=O)(=O)C(C)C)c(Nc2ccc3[nH]nnc3c2)n1

IC50 [2]: 1.06 µM
IC50 [1]: 1.18 µM
SMILES: COC(=O)NS(=O)(=O)Nc1ccc(NC(C)C)nc1Nc1ccc2[nH]nnc2c1

IC50 [2]: 0.72 µM
IC50 [1]: 0.8 µM
SMILES: CC(C)Nc1ccc(NS(=O)(=O)c2ccc(F)cc2F)c(Nc2ccc3[nH]nnc3c2)n1

IC50 [2]: 0.9 µM
IC50 [1]: 0.62 µM
SMILES: CC(C)Nc1ccc(NS(=O)(=O)c2c(F)cc(F)cc2F)c(Nc2ccc3[nH]nnc3c2)n1

IC50 [2]: 2.05 µM
IC50 [1]: 1.69 µM
SMILES: CC(C)Nc1ccc(NS(=O)(=O)N(C)C)c(Nc2ccc3[nH]nnc3c2)n1
